From article PMC9511493, “2-(Fluoromethoxy)-4′-(S-methanesulfonimidoyl)-1,1′-biphenyl (UCM-1306), an Orally Bioavailable Positive Allosteric Modulator of the Human Dopamine D1 Receptor for Parkinson’s Disease” (Journal of Medicinal Chemistry, 2022)
Where “and” joins values, the source holds several entries; their conditions need not be identical. Identical values can stand only once. Entries after “also recorded” stand apart in the source; their conditions may differ. Like-named read-outs stand apart in the source and are kept apart here.

Columns and labels:
Format in all cases: in vivo, mouse
C57BL/6J mice = experiment: novel object recognition test; conditions: 1 mg/kg ip; tested at 24 and 96 h
Procedure: Procedures for animal experiments were conducted in adherence to the European Communities Council Directive (86/609/ECC) and Spanish regulations (BOE 252/34367-91, 2005) for the use of laboratory animals. Experiments were performed on 3 month old male mice with a C57BL/6J background. Eight mice were used for each experimental condition. Mice were maintained on a 12 h light/dark cycle (lights on at 08:00 am), with water and food provided ad libitum. Object recognition test was performed according to a previously reported method.[58] Briefly, mice were first habituated to an empty open field apparatus (40 × 40 × 40 cm) for 5 min. After the habituation session, mice received an ip injection of compound 26 (1 mg/kg) or vehicle (NaCl 0.9%). Twenty minutes later, mice were placed again in the open field, which now included two identical copies of an object (“familiar” object) located in two adjacent corners, and mice were allowed to explore for 10 min (acquisition session). […] The total time of object exploration (defined as the mouse touching an object with its nose or forepaws) was scored, and object recognition memory was calculated by the following discrimination ratio: time exploring the new object—time exploring the familiar object)/total time exploring both objects.

[1] = plasma and brain concentrations in the locomotor activity study; conditions: 30 mg/kg po; for concentration at 30 min / concentration at 60 min: male, C57BL/6, mouse, po, 30 mg/kg
Procedure: Regarding the PD model, reserpine is an alkaloid known to induce hypomobility/akinesia and rigidity, and reserpinized rodents are widely used as a preclinical model for PD.
The study was carried out in male C57BL/6 wild-type (22–25 g) mice that were acclimatized for 5 days. Animals were randomized based on body weight into six groups (G1 to G6), ten animals per group (n = 10), being group G1 the naïve control group. Animals were fed with standard diet ad libitum. Animals were dosed with subcutaneous administration of reserpine (2.5 mg/kg in DMSO/saline) and after 20 h they were treated with a vehicle (10 mL/kg, po), compound 26 (30 mg/kg, po), L-DOPA (100 or 400 mg/kg, ip) + carbidopa (100 mg/kg, ip) and/or their combination, as indicated in Figure 7. The vehicle employed for compound 26 administration was 5% NMP + 5% solutol HS-15 + 90% normal saline. L-DOPA and carbidopa were administered 30 min prior to start of locomotor activity recording. Compound 26 was administered and 15 min later, mice were placed in the locomotor activity cage to measure the locomotor activity for 60 min (total distance travelled) using ALL Maze version 0.5 automated software enabled with video tracking system. After the activity sessions, raw data were reduced using ALL Maze 5.0 software and Microsoft Excel. Statistical analysis was done with GraphPad Prism-5 using one way ANOVA followed by Dunnett’s test/Tukey’s post hoc test and/or two-way ANOVA followed by Bonferroni post hoc test. Data were considered statistically significant, if P value was less than 0.05. […]
Table S2.Plasma and brain concentrations achieved for compound 26in the locomotor
Plasma concentration (ng/mL) Brain concentration (ng/mL)
Animal 30 min 60 min Animal 30 min 60 min

[2] = plasma, brain and CSF levels after a single oral dose in mice
Procedure: Prior to the evaluation of the new D1R PAM 26 in animal models, the in vivo cerebrospinal fluid (CSF) and brain permeability were studied. […] Concentrations in the CSF and brain were quantifiable up to 4 h. Brain-to-plasma concentration ratios were in the range of 0.55–1.15 between 0.5 and 4 h and CSF-to-plasma concentration ratio in the range of 0.13–0.21 between 0.5 and 4 h.
Figure 5 Compound levels in the plasma, brain, and CSF of mouse administered with 5 mg/kg (po) of compound 26. Horizontal dotted line indicates the EC50 value of the compound.

Brain concentration (ng/mL), individual animals 1-3 ([1]; 30 min): 7185.33 ng/mL and 5537.43 ng/mL | Plasma concentration (ng/mL), individual animals 1-3 ([1]; 30 min): 9994.87 ng/mL and 7753.96 ng/mL | concentration at 30 min ([1]; brain, 30 min, read-out: Brain concentration (ng/mL), individual animals 1-3): 7340 ng/mL | concentration at 30 min ([1]; brain, 30 min, read-out: Brain concentration (ng/mL), mean): 6690 ng/mL | concentration at 60 min ([1]; brain, 60 min, read-out: Brain concentration (ng/mL), mean): 4120 ng/mL | concentration at 30 min ([1]; plasma, 30 min, read-out: Plasma concentration (ng/mL), individual animals 1-3): 9690 ng/mL | concentration at 30 min ([1]; plasma, 30 min, read-out: Plasma concentration (ng/mL), mean): 9150 ng/mL | concentration at 60 min ([1]; plasma, 60 min, read-out: Plasma concentration (ng/mL), mean): 4860 ng/mL | CSF-to-plasma free concentration ratio ([2]; 5 mg/kg po): approximately 1 | time up to which CSF concentrations were quantifiable ([2]; 5 mg/kg po, male BALB/c mice): 4 h | time up to which brain concentrations were quantifiable ([2]; 5 mg/kg po, male BALB/c mice): 4 h | time up to which plasma concentrations were quantifiable ([2]; 5 mg/kg po, male BALB/c mice): 8 h | Kp ([2]; male, BALB/c, mouse, CSF and plasma, 5 mg/kg po, between 0.5 and 4 h, read-out: CSF-to-plasma concentration ratio): 0.13 to 0.21 | Kp at 4 h ([2]; male, BALB/c, mouse, brain and plasma, 5 mg/kg po, between 0.5 and 4 h, read-out: brain-to-plasma concentration ratio): 0.55 to 1.15 | Tmax at 8 h ([2]; mouse, plasma, 5 mg/kg single oral dose, male BALB/c mice): 30 min
SMILES: CS(=N)(=O)c1ccc(-c2ccccc2OCF)cc1 (stereo not drawn) [Compound 26, 2-(Fluoromethoxy)-4′-(S-methanesulfonimidoyl)-1,1′-biphenyl]
memory in the novel object recognition test (C57BL/6J mice): increases memory trace; also recorded: Enhanced memory | Brain concentration (ng/mL), individual animals 1-3 ([1]; 60 min): 5552.94 ng/mL and 2620.14 ng/mL and 4178.34 ng/mL | Plasma concentration (ng/mL), individual animals 1-3 ([1]; 60 min): 6716.72 ng/mL and 6187.65 ng/mL and 1662.96 ng/mL
